Earlier results as cited in PubChem BioAssay AID1259409 (Chemical Carcinogenesis Research Information System (CCRIS), 2018).

Tested on: rodent chemically induced tumor inhibition, incidence and multiplicity
Assay: CCRIS tumor inhibitor studies
Conditions: Route [Inhibitor]: ORAL, Promoter: NONE USED

SMILES: CC1=C(/C=C/C(C)=C/C=C/C(C)=C/C(=O)NCC(O)CO)C(C)(C)CCC1 (stereo not drawn)
- tumour outcome (control, treated, inhibition, significance) (Carcinogen: N-BUTYL-N-(4-HYDROXYBUTYL)NITROSAMINE, 3817-11-6, Dose [Inhibitor]: 1.5 MMOL/KG/D IN DIET FOR 108 D STARTING 1 WK POST CARCINOGEN TREATMENT (STUDY DURATION: 171 D), Species: MOUSE, Strain/Sex: BDF/MALE, Target Tissue: Type of Lesion: URINARY BLADDER: TRANSITIONAL CELL CARCINOMA, Dose [Carcinogen]: 5 MG 2/WK FOR 9 WK): 31/55 (56%), 25/54 (46%), 18%, not significant
- tumour outcome (control, treated, inhibition, significance) (Carcinogen: N-NITROSOBIS(2-OXOPROPYL)AMINE, 60599-38-4, Dose [Inhibitor]: 0.25 MMOL/KG OF DIET FOR 184 D STARTING 2 WK AFTER LAST CARCINOGEN DOSE WITH 4 INTERMITTENT 1 WK REST PERIODS OF VEHICLE, Species: HAMSTER, Strain/Sex: SYRIAN/FEMALE, Target Tissue: Type of Lesion: PANCREAS: CARCINOMA, Dose [Carcinogen]: 20 MG/KG INJECTION GIVEN TWICE 1 WK APART): 38%, 35%, 8%, not calculated
- tumour outcome (control, treated, inhibition, significance) (Carcinogen: N-NITROSOBIS(2-OXOPROPYL)AMINE, 60599-38-4, Dose [Inhibitor]: 0.25 MMOL/KG OF DIET FOR 184 D STARTING 2 WK AFTER LAST CARCINOGEN DOSE WITH 4 INTERMITTENT 1 WK REST PERIODS OF VEHICLE, Species: HAMSTER, Strain/Sex: SYRIAN/MALE, Target Tissue: Type of Lesion: PANCREAS: CARCINOMA, Dose [Carcinogen]: 20 MG/KG INJECTION GIVEN TWICE 1 WK APART): 34%, 43%, -26%, not calculated
- tumour outcome (control, treated, inhibition, significance) (Carcinogen: N-NITROSOBIS(2-OXOPROPYL)AMINE, 60599-38-4, Dose [Inhibitor]: 0.25 MMOL/KG OF DIET FOR 350 D STARTING 2 WK AFTER LAST CARCINOGEN DOSE AND INTERRUPTED TWICE BY 1 WK REST PERIODS OF VE, Species: HAMSTER, Strain/Sex: SYRIAN/FEMALE, Target Tissue: Type of Lesion: LIVER: HEPATOCELLULAR CARCINOMA, Dose [Carcinogen]: 20 MG/KG INJECTION GIVEN TWICE 1 WK APART): 5%, 28%, -460%, not calculated
- tumour outcome (control, treated, inhibition, significance) (Carcinogen: N-NITROSOBIS(2-OXOPROPYL)AMINE, 60599-38-4, Dose [Inhibitor]: 0.25 MMOL/KG OF DIET FOR 350 D STARTING 2 WK AFTER LAST CARCINOGEN DOSE AND INTERRUPTED TWICE BY 1 WK REST PERIODS OF VE, Species: HAMSTER, Strain/Sex: SYRIAN/MALE, Target Tissue: Type of Lesion: LIVER: HEPATOCELLULAR CARCINOMA, Dose [Carcinogen]: 20 MG/KG INJECTION GIVEN TWICE 1 WK APART): 7%, 14%, -100%, not calculated
- tumour outcome (control, treated, inhibition, significance) (Carcinogen: N-NITROSOBIS(2-OXOPROPYL)AMINE, 60599-38-4, Dose [Inhibitor]: 0.5 MMOL/KG OF DIET FOR 153 D STARTING 2 WK AFTER LAST CARCINOGEN DOSE WITH 4 INTERMITTENT 1 WK REST PERIODS OF VEHICLE-, Species: HAMSTER, Strain/Sex: SYRIAN/FEMALE, Target Tissue: Type of Lesion: LIVER: HEPATOCELLULAR CARCINOMA, Dose [Carcinogen]: 20 MG/KG INJECTION GIVEN TWICE 1 WK APART): 5%, 0%, 100%, not calculated
- tumour outcome (control, treated, inhibition, significance) (Carcinogen: N-NITROSOBIS(2-OXOPROPYL)AMINE, 60599-38-4, Dose [Inhibitor]: 0.5 MMOL/KG OF DIET FOR 153 D STARTING 2 WK AFTER LAST CARCINOGEN DOSE WITH 4 INTERMITTENT 1 WK REST PERIODS OF VEHICLE-, Species: HAMSTER, Strain/Sex: SYRIAN/FEMALE, Target Tissue: Type of Lesion: PANCREAS: NEOPLASM, Dose [Carcinogen]: 20 MG/KG INJECTION GIVEN TWICE 1 WK): 38%, 21%, 45%, not calculated
- tumour outcome (control, treated, inhibition, significance) (Carcinogen: N-NITROSOBIS(2-OXOPROPYL)AMINE, 60599-38-4, Dose [Inhibitor]: 0.5 MMOL/KG OF DIET FOR 153 D STARTING 2 WK AFTER LAST CARCINOGEN DOSE WITH 4 INTERMITTENT 1 WK REST PERIODS OF VEHICLE-, Species: HAMSTER, Strain/Sex: SYRIAN/MALE, Target Tissue: Type of Lesion: PANCREAS: CARCINOMA, Dose [Carcinogen]: 20 MG/KG INJECTION GIVEN TWICE 1 WK APART): 34%, 36%, -6%, not calculated
